We go through three molecules from patent US20160296646A1, “ALKYLPHOSPHOCHOLINE ANALOGS FOR MULTIPLE MYELOMA IMAGING AND THERAPY” (Wisconsin Alumni Research Foundation, priority 2015, published 2016).

Assay [1] deals with MM.1S multiple myeloma cell line. As to the kind of experiment: Uptake of fluorescent analogs in MM.1S cells (optical imaging). As to conditions: for uptake: MM.1S cells, fluorescence imaging. It counts as cell-based. An excerpt:
(§1) FIG. 4 includes optical images showing uptake of CLR1501 in three different multiple myeloma cell lines (top row, MM.1S; middle row, MM.1R; bottom row, RPM18226). […] 20× magnification.
(§2) FIG. 6 includes optical images showing uptake of CLR1502 in three different multiple myeloma cell lines (top row, MM1S; middle row, MM.1R; bottom row, RPM18226). […] 20× magnification.

The test system of assay [2] is MM.1R multiple myeloma cell line. As to the kind of experiment: Uptake of fluorescent analogs in MM.1R cells (optical imaging). As to conditions: fluorescence imaging. Format: cell-based.
From the text: as §1, §2

Assay [3] relates to RPM18226 multiple myeloma cell line. As to the kind of experiment: Uptake of fluorescent analogs in RPM18226 cells (optical imaging). Format: cell-based. Conditions: fluorescence imaging.
From the text: as §1, §2

Assay [4] concerns U266 multiple myeloma cell line. As to the kind of experiment: Uptake of fluorescent analogs in U266 cells (optical imaging). It counts as cell-based. As to conditions: fluorescence imaging. An excerpt:
(§3) FIG. 5 includes optical images showing uptake of CLR1501 in two additional multiple myeloma cell lines (top row, U266; bottom row, H929). […] 20× magnification.
(§4) FIG. 7 includes optical images showing uptake of CLR1502 in two additional multiple myeloma cell lines (top row, U266; bottom row, H929). […] 20× magnification.

Assay [5] has as its system NCIH929 multiple myeloma cell line. As to the kind of experiment: Uptake of fluorescent analogs in NCIH929 cells (optical imaging). Conditions: fluorescence imaging. Format: cell-based.
From the text: as §3, §4

Assay [6] concerns peripheral blood mononuclear cells (PBMCs) isolated from normal human blood. The assay is described as follows: Uptake in normal peripheral blood mononuclear cells. Format: cell-based. Conditions: compared to MM1.S cells. The procedure: FIG. 8 includes optical images showing uptake of CLR1502 in cells co-incubated with Hoechst 33452 (blue nuclear) stain. […] 20× magnification.
(§5) Uptake of CLR1501 and 1502 was assessed using peripheral blood mononuclear cells (PBMCs) isolated from normal human blood.

The test system of assay [7] is CD14+ monocyte/macrophage cells from normal human blood. As to the kind of experiment: Uptake in CD14+ monocyte/macrophage cells among normal PBMCs. Format: cell-based. The procedure:
as §5

Assay [8] has as its system CD138+ multiple myeloma tumor cells. As to the kind of experiment: Uptake in CD138+ tumor cells isolated from patient bone marrow aspirate. It counts as cell-based, human. The source says:
(§6) Bone marrow aspirate samples were taken from fifteen different patients diagnosed with multiple myeloma.
(§7) Uptake of both CLR1501 and CLR1502 was quantified by measuring fluorescence intensity for CD138^+ multiple myeloma tumor cells, CD14^+ monocyte/macrophage cells, and CD138^−/CD14^− cells isolated from bone marrow aspitrates from multiple myeloma patients.

The test system of assay [9] is CD14+ monocyte/macrophage cells. As to the kind of experiment: Uptake in CD14+ monocyte/macrophage cells isolated from patient bone marrow aspirate. It counts as cell-based, human.
From the text: as §6, §7

The subject of assay [10] is CD138-/CD14- cells (other mononuclear cells). As to the kind of experiment: Uptake in CD138-/CD14- cells isolated from patient bone marrow aspirate. It counts as cell-based, human.
From the text: as §6, §7

The test system of assay [11] is MM.1s multiple myeloma cells. As to the kind of experiment: Bioactivity of [131I]-CLR1404: live fraction of MM.1s cells after exposure. It counts as cell-based. Conditions: 48 hour exposure, control 96%. How it is done: MM.1s multiple myeloma cells were exposed to two different concentrations of [^131I]-CLR1404 (0.082 μCi and 0.91 μCi) for a 48 hour period, as well as to a control containing no [^131I]-CLR1404. Bioactivity for each group was determined by determining the percentage of cells that remained alive after the exposure period (live fraction).

[12] abbreviates: CD138+ cells from bone marrow aspirates of fifteen multiple myeloma patients.
Setting [13] is: CD14+ cells from patient bone marrow aspirates.
[14] abbreviates: CD138- cells from the same patient samples (except CD14+ cells).

For the molecule `C[N+](C)(C)CCOP(=O)([O-])OCCCCCCCCCCCCCCCCCCc1ccc(C2=C3C=CC=[N+]3[B-](F)(F)n3cccc32)cc1` [CLR1501], the uptake result in assay [1] was “strong uptake”; in [2], “strong uptake”; in [3], “strong uptake”; in assay [4], “high uptake”; in [5], “high uptake”; in [6], “minimal to no uptake”. The uptake entry in assay [7] is “did exhibit uptake”; in assay [8] (setting [12]), “high uptake”; in [8] (patient A, CD138+ cells) it was “taken up”; in assay [9] (setting [13]), “did take up the analogs”; in assay [9] (patient A, CD14+ cells) it was “taken up”; in [10] (setting [14]) it was “very minimal to no uptake”. For the same molecule, the uptake result in [10] (patient A, CD138-/CD14- cells) is given as “no detectable uptake”; in assay [10] (patient B, CD138-/CD14- cells co-incubated with Hoechst 33452), “minimal CLR1501 uptake”. Also, the “localization of uptake within cells” value in assay [1] (MM.1S, MM.1R, RPM18226 cells co-incubated with lipid raft stain) is reported as “localized to the lipid rafts”.
Regarding `CN1C(=CC=C2CCCC(C=CC3=[N+](C)c4ccccc4C3(C)C)=C2c2ccc(CCCCCCCCCCCCCCCCCCOP(=O)(O)OCC[N+](C)(C)C)cc2)C(C)(C)c2ccccc21` [CLR1502], the uptake result in assay [1] is on record as “high uptake”; in [2] it was “high uptake”; in assay [3], “high uptake”; in assay [4], “high uptake”; in [5], “high uptake”; in assay [6], “minimal to no uptake”. Moreover, the uptake entry in assay [7] is given as “did exhibit uptake”; in assay [8] (setting [12]), “high uptake”; in assay [9] (setting [13]), “did take up the analogs”; in assay [10] (setting [14]) it was “very minimal to no uptake”; in assay [10] (patient D, CD138-/CD14- cells) it was “minimal uptake”. The “uptake in CD138+ tumor cells relative to CD14 monocyte/macrophage cells (fluorescence intensity)” value in assay [8] (patient G, same patient) is reported as “threefold greater”. The “uptake in CD138+ tumor cells relative to CD138-/CD14- cells (fluorescence intensity)” value in [8] (patient G, same patient) is recorded as “about fifteen fold greater”.
With `C[N+](C)(C)CCOP(=O)([O-])OCCCCCCCCCCCCCCCCCCc1ccc([131I])cc1` [[^131I]-CLR1404], the results for the live fraction in assay [11] (0.082 μCi) and in assay [11] (0.91 μCi) were 71% and 0%, respectively.
